Test results taken from patent publication US20150071918A1, “PEPTIDES FOR THE TREATMENT OF CANCER” (H. LEE MOFFITT CANCER CENTER AND RESEARCH INSTITUTE, INC., priority 2012, published 2015).
*1 amine or outer side, *2 acyl side, *3 side chain or, on linkers, in order; H or OH if unused. Where a SMILES comes first, the peptide text is derived from it. Bridges are numbered along the chain shown (N, C = ends). [ ]: non-standard residue; d: D form. The star is where a group is joined. dProlinol(O-CH2CO) = O=C(COC[C@H]1CCCN1[*:1])[*:2]; N(2-Aminoethyl)Gly = O=C(CN(CCN[*:3])[*:1])[*:2]; Nle = CCCC[C@H](N)C(=O)O; Ms = CS(=O)(=O)*

Assays:
H929 myeloma cells = format: cell-based, human; details: H929 cells
Outline: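 Cells exposed to a peptide concentration series for 24 h; cell death read by Topro-3 staining and FACS. IC50 from linear regression of dose-response curves, mean of 3 independent experiments.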

[1] = Weight of mice and overt signs of toxicity under peptide injection; format: in vivo; details: mice treated with cyclized HYD1
Procedure: FIG. 37 is a graph showing the effect of cyclized HYD1 (MTI-101) injection on the weight of mice.
FIG. 49. Cyclic HYD1 (MTI-101) was dosed daily at 8 mpk for the first week and then every other day for 4 weeks. The mice were bled weekly to measure paraprotein as a surrogate for tumor burden. […] Three of five vehicle-treated control animals had died by 35 days which contributes to the large SD.

5TGM1 cells = experiment: 5TGM1 murine in vivo myeloma model, survival; set-up: species or system C57BL/KaLwRij mice; details: 5TGM1 model, dosing 3× weekly for three weeks
Procedure: FIG. 61B: 5TGM1 model: One million 5TGM1 cells were injected i.v. in C57BL/KaLwRij mice and allowed to engraft for 10 days prior to drug treatment. The dosing scheme for all drugs was 3× weekly for three weeks. Surrogate markers of morbidity include hind leg paralysis and/or lethargic behavior. All mice were euthanatized at day 100.
One million 5TGM1 cells were injected i.v. in C57BL/KaLwRij mice and allowed to engraft for 10 days prior to drug treatment. […] The dosing scheme for melphalan was twice (day 10 and day 14).

[2] = test system: CD138 cells from newly diagnosed or relapsed patients; experiment: Cell death in CD138 cells enriched from bone marrow aspirates of myeloma patients, annexin V and FACS, 24 hours; format: cell-based, human; details: 10 μM MTI-101, 24 hours
Procedure: FIGS. 60A-60D. CD138 cells were enriched from the bone marrow aspirates of consented newly diagnosed or relapsed patients and were treated with 10 μM MTI-101, 10 μM Chloroquine or 10 nM Bortezomib or the combination of both agents. Following 24 hours of drug treatment, dell death was measured by annexin V staining and FACS analysis.

A549 cells = experiment: MTT viability, combination index with MEK inhibitor; format: cell-based
Procedure: FIG. 69. MTI-101 plus EGFR inhibitors are synergistic in lung cancer cell lines with EGFR activating mutations, and MTI-101 plus MEK inhibitors are synergistic in cell lines arboring activating RAS or BRAFF mutations. Values indicate average calculated combination index (CI). Additive (CI=1), synergism (CI<1) and, antagonism (CI>1). […] Cell viability was measured by the MTT assay. Data generated were used to calculate a Chou and Talalay Combination Index (CI).

[3] = test system: cleaved caspase-3, ATP in NCI-H929 and U266 MM cells; experiment: Mechanism of cell death in MM cells (cleaved caspase-3, ATP, ROS); format: cell-based
Procedure: FIGS. 56A-56F. […] FIG. 56A: Chemical structure of MTI-101 (also referred to herein as HM-27). FIG. 56B: Direct comparison of HYD1 and MTI-101 in NCI-H929 cells. […] FIG. 56F: NCI-H929 and U266 cells were treated with MTI-101 or tert-butyl hydrogen peroxide as a positive control for 1 hour, stained with CellRox Green for 30 minutes and washed, with FACS analysis to determine ROS production. All experiments were run in triplicate and repeated 3 independent times. Statistical significance using ANOVA, *P≦0.05. Similar to linear peptide HYD1, the cyclized peptide MTI-101 induces caspase independent cell death in myeloma cell lines.

[4] = test system: phospho-ERK and CD44-associated PYK2 in NCI-H929 and U266 MM cells; experiment: Signal transduction in MM cells (pErk, CD44 immunoprecipitation probed for Pyk2, Src); format: cell-based; details: 5 uM H929 and 10 uM U226 cells
Procedure: FIGS. 55A-55D. […] NCI-H929 and U266 were treated with 5 uM and 10 uM HM-27 respectively for various time points before whole cell lysis in RIPA buffer and probed for pErk and tErk (FIGS. 55A, 55B).
FIGS. 58A-58D. […] MTI-101 activates ERK and Pyk2. Member of these pathways can be utilized as biomarkers of response. In addition, agents that target survival pathways can be used in combination with MTI-101 (data supporting this in AML).
The inventors performed a total membrane binding assay with biotin conjugated HYD1 and NeutrAvidin beads on NCI-H929 and U266 MM cells. Samples were then loaded on an SDS-PAGE gel, trypsin digested, and analyzed by Liquid Chromatography-Mass Spectrometry/Mass Spectrometry (LC-MS/MS). The adhesion receptor CD44 was determined to be among the adhesion receptors that had the most peptide match hits and was confirmed as a valid hit via Western Blot analysis using biotin as a control for non-specific binding. In order to assess the binding between CD44 and HYD1, 96-well NeutrAvidin coated plates were preincubated with biotin-HYD1 before the addition of increasing concentrations of full length recombinant human CD44. For more quantitative binding affinity analysis we produced the human globular ectodomain of CD44 comprising of amino acids 20-178. […]

H929-60 cell line = experiment: Cross-resistance in cell line selected for resistance to HYD1; format: cell-based; details: H929-60, selected for resistance to HYD1

## CCCC[C@@H]1NC(=O)CN(S(C)(=O)=O)CCNC(=O)[C@H](CCCCN)NC(=O)[C@H](CC(C)C)NC(=O)[C@H](CCCCN)NC(=O)[C@H](CC(C)C)NC(=O)[C@H](CCCCN)NC(=O)COC[C@H]2CCCN2C(=O)[C@H](Cc2c[nH]c3ccccc23)NC(=O)[C@H](C)NC(=O)[C@H](C(C)C)NC(=O)[C@H](C(C)C)NC1=O [MTI-101] (Ms-[N(2-Aminoethyl)Gly][Nle]VVAW[dProlinol(O-CH2CO)]KLKLK; lactam 1-C)
H929 myeloma cells; read-out: IC50
  IC50: 1200 nM
H929 myeloma cells; reference of the 10- and 15-fold statements not expressly named
  fold more potent than linear HYD1: 30 fold
[1]
  weight loss / signs of toxicity: No weight loss or any overt signs of toxicity were observed
[1]; listed as c-HYD1
  weight loss / signs of toxicity: no apparent toxicity
5TGM1 cells
  survival: increases survival in the 5TGM1 murine in vivo model
[2]; newly diagnosed patients
  effect of 10 nM Bortezomib on MTI-101 activity: increased the activity of MTI-101 in primary patient specimens obtained from newly diagnosed patients
[2]; relapsed myeloma patients
  effect of 10 μM Chloroquine on MTI-101 induced cell death: increased the activity of MTI-101 induced cell death in specimens obtained from relapsed myeloma patients
[2]; relapsed vs newly diagnosed
  activity in primary patient specimens: more active in specimens obtained from relapsed multiple myeloma (MM) patients
A549 cells
  combination with MEK inhibitor Selumetinib: Synergistic growth
[3]
  cleaved caspase-3 activity in MM cells: does not induce cleaved caspase-3 activity
  total cellular ATP in MM cells: reduces total cellular levels of ATP in NCI-H929 and U266 cells
[4]
  phospho-ERK and CD44-associated PYK2 in MM cells: induces transient phospho-ERK and CD44-associated PYK2 complex in NCI-H929 and U266 MM cells
H929-60 cell line
  cross-resistance: cross-resistance in the H929-60 cell line
